Reference: patent US20150141381A1, “TETRACYCLINE COMPOUNDS HAVING TARGET THERAPEUTIC ACTIVITIES” (Paratek Pharmaceuticals, Inc., priority 2001, published 2015)
Like-named read-outs stand apart in the source and are kept apart here.

What was measured:
S. aureus RN450 = assay: In Vitro Anti-Bacterial Activity Assay (MIC), gram positive; format: cell-based; settings: Staphylococcus aureus, RN450, 18 h
E. coli mL308 225 = assay: In Vitro Anti-Bacterial Activity Assay (MIC), gram negative; format: cell-based; settings: Escherichia coli, ML308225, 18 h
[1] = MIC class, Table 3, read-out: Antibiotic Activity Gram +
[2] = MIC class, Table 3, read-out: Antibiotic Activity Gram −
[3] = MIC class, Table 3 (Continued), read-out: Gram+ activity
[4] = MIC class, Table 3 (Continued), read-out: Gram− activity

Row | Structure (SMILES) | MIC (S. aureus RN450; [1]) [mg/L] | MIC (E. coli mL308 225; [2]) [mg/L] | also measured
1 | COC(=O)c1cc(N(C)C)c2c(c1O)C(=O)C1=C(O)[C@]3(O)C(=O)C(C(N)=O)=C(O)C(N(C)C)[C@@H]3C[C@@H]1C2 (some centres unmarked) [MO] | > 4 | > 4 | –
2 | CC(=O)c1cc(N(C)C)c2c(c1O)C(=O)C1=C(O)[C@]3(O)C(=O)C(C(N)=O)=C(O)[C@@H](N(C)C)[C@@H]3C[C@@H]1C2 [MQ] | > 4 | > 4 | –
3 | CN(C)C(=O)C(=O)c1ccc(O)c2c1C[C@H]1C[C@H]3C(N(C)C)C(O)=C(C(N)=O)C(=O)[C@@]3(O)C(O)=C1C2=O (some centres unmarked) [MR] | < 4 | < 4 | –
4 | Cc1csc(NCc2cc(N(C)C)c3c(c2O)C(=O)C2=C(O)[C@]4(O)C(=O)C(C(N)=O)=C(O)C(N(C)C)[C@@H]4C[C@@H]2C3)n1 (some centres unmarked) [MS] | < 4 | > 4 | –
5 | CCOC(=O)c1csc(NCc2cc(N(C)C)c3c(c2O)C(=O)C2=C(O)[C@]4(O)C(=O)C(C(N)=O)=C(O)C(N(C)C)[C@@H]4C[C@@H]2C3)n1 (some centres unmarked) [MT] | > 4 | > 4 | –
6 | CN(C)C1C(O)=C(C(N)=O)C(=O)[C@@]2(O)C(O)=C3C(=O)c4c(O)c(CNCC(C)(C)C)cc(CNCC(C)(C)C)c4C[C@H]3C[C@@H]12 (some centres unmarked) [MU] | < 4 | < 4 | –
7 | CN(C)c1cc(CNCc2ccccc2)c(O)c2c1C[C@H]1C[C@H]3[C@H](N(C)C)C(O)=C(C(N)=O)C(=O)[C@@]3(O)C(O)=C1C2=O [MW] | < 4 | < 4 | –
8 | CN(C)[C@@H]1C(O)=C(C(N)=O)C(=O)[C@@]2(O)C(O)=C3C(=O)c4c(ccc(CNCC(C)(C)C)c4O)C[C@H]3C[C@@H]12 [MZ] | < 4 | < 4 | –
9 | CN(C)[C@@H]1C(O)=C(C(N)=O)C(=O)[C@@]2(O)C(O)=C3C(=O)c4c(O)ccc(-c5ccc(/C=N/O)o5)c4C[C@H]3C[C@@H]12 [NA] | < 4 | < 4 | –
10 | CN(C)C1C(O)=C(C(N)=O)C(=O)[C@@]2(O)C(O)=C3C(=O)c4c(O)ccc(CNC5CCCC5)c4C[C@H]3C[C@@H]12 (some centres unmarked) [NE] | < 4 | < 4 | –
11 | CC(C)CNCc1ccc(O)c2c1C[C@H]1C[C@H]3C(N(C)C)C(O)=C(C(N)=O)C(=O)[C@@]3(O)C(O)=C1C2=O (some centres unmarked) [NF] | < 4 | < 4 | –
12 | COC(=O)/C=C/c1ccc(O)c2c1C[C@H]1C[C@H]3[C@H](N(C)C)C(O)=C(C(N)=O)C(=O)[C@@]3(O)C(O)=C1C2=O [NJ] | < 4 | > 4 | –
13 | CN(C)c1cc(N2CCCCC2)c(O)c2c1C[C@H]1C[C@H]3[C@H](N(C)C)C(O)=C(C(N)=O)C(=O)[C@@]3(O)C(O)=C1C2=O [NK] | > 4 | > 4 | –
14 | CN(C)[C@@H]1C(O)=C(C(N)=O)C(=O)[C@@]2(O)C(O)=C3C(=O)c4c(O)ccc(-c5cncnc5)c4C[C@H]3C[C@@H]12 [NL] | < 4 | < 4 | –
15 | CN(C)c1cc(C=O)c(O)c2c1C[C@H]1C[C@H]3[C@@H](N(C)C)C(O)=C(C(N)=O)C(=O)[C@@]3(O)C(O)=C1C2=O [NM] | < 4 | < 4 | –
16 | CC(C)c1ccc(CNc2cc(N(C)C)c3c(c2O)C(=O)C2=C(O)[C@]4(O)C(=O)C(C(N)=O)=C(O)[C@@H](N(C)C)[C@@H]4C[C@@H]2C3)cc1 [NN] | < 4 | > 4 | –
17 | CN(C)[C@@H]1C(O)=C(C(N)=O)C(=O)[C@@]2(O)C(O)=C3C(=O)c4c(O)ccc(C=CC#N)c4C[C@H]3C[C@@H]12 [NO] | < 4 | < 4 | –
18 | CN(C)[C@H]1C(O)=C(C(N)=O)C(=O)[C@@]2(O)C(O)=C3C(=O)c4c(O)c(CNCC(C)(C)C)cc(-c5ccoc5)c4C[C@H]3C[C@@H]12 [NP] | < 4 | < 4 | –
19 | COc1ccc(CNCC(F)(F)F)cc1-c1ccc(O)c2c1C[C@H]1C[C@H]3C(N(C)C)C(O)=C(C(N)=O)C(=O)[C@@]3(O)C(O)=C1C2=O (some centres unmarked) [NQ] | < 4 | > 4 | –
20 | CCC(NCc1cc(N(C)C)c2c(c1O)C(=O)C1=C(O)[C@]3(O)C(=O)C(C(N)=O)=C(O)C(N(C)C)[C@@H]3C[C@@H]1C2)C(F)(F)F (some centres unmarked) [NT] | < 4 | > 4 | –
21 | CCc1ccnc(-c2ccc(O)c3c2C[C@H]2C[C@H]4[C@H](N(C)C)C(O)=C(C(N)=O)C(=O)[C@@]4(O)C(O)=C2C3=O)c1 [NZ] | < 4 | < 4 | –
22 | CN(C)[C@@H]1C(O)=C(C(N)=O)C(=O)[C@@]2(O)C(O)=C3C(=O)c4c(O)ccc(-c5ccc(NC(=O)C6CCCN6C(=O)C(F)(F)F)cc5)c4C[C@H]3C[C@@H]12 (some centres unmarked) [OH] | < 4 | > 4 | –
23 | CN(C)[C@@H]1C(OCc2ccccc2)=C(C(N)=O)C(=O)[C@@]2(O)C(O)=C3C(=O)c4c(cccc4OCc4ccccc4)C[C@H]3C[C@@H]12 [OJ] | > 4 | > 4 | –

Row | Structure (SMILES) | MIC (S. aureus RN450; [1]) [mg/L] | MIC (E. coli mL308 225; [2]) [mg/L] | also measured
24 | CN(C)c1ccc(OCc2ccccc2)c2c1C[C@H]1C[C@H]3[C@H](N(C)C)C(OCc4ccccc4)=C(C(N)=O)C(=O)[C@@]3(O)C(O)=C1C2=O [ON] | > 4 | > 4 | –
25 | CN(C)Cc1cc(-c2ccc(O)c3c2C[C@H]2C[C@H]4[C@H](N(C)C)C(O)=C(C(N)=O)C(=O)[C@@]4(O)C(O)=C2C3=O)ccc1F [OQ] | < 4 | < 4 | –
26 | CCOC(=O)COC1=C(C(N)=O)C(=O)[C@@]2(O)C(O)=C3C(=O)c4c(O)cccc4C[C@H]3C[C@H]2[C@@H]1N(C)C [OR] | > 4 | > 4 | –
27 | CCCCOc1ccc(I)c2c1C(=O)C1=C(O)[C@]3(O)C(=O)C(C(N)=O)=C(O)[C@@H](N(C)C)[C@@H]3C[C@@H]1C2 [OS] | > 4 | > 4 | –
28 | CN(C)[C@@H]1C(OCc2ccccc2)=C(C(N)=O)C(=O)[C@@]2(O)C(O)=C3C(=O)c4c(O)ccc(-c5ccc(C(F)(F)F)cc5)c4C[C@H]3C[C@@H]12 [OU] | < 4 | > 4 | –
29 | CCOC(=O)COC1=C(C(N)=O)C(=O)[C@@]2(O)C(O)=C3C(=O)c4c(O)ccc(I)c4C[C@H]3C[C@H]2[C@@H]1N(C)C [OY] | < 4 | > 4 | –
30 | C[C@H]1c2ccc(C(C)(C)C)c(O)c2C(=O)C2=C(O)[C@]3(O)C(=O)C(C(N)=O)=C(O)[C@@H](N(C)C)[C@@H]3[C@@H](O)[C@@H]21 [O] | < 4 | > 4 | –
31 | Cc1cc(-c2ccc(O)c3c2C[C@H]2C[C@H]4[C@H](N(C)C)C(O)=C(C(N)=O)C(=O)[C@@]4(O)C(O)=C2C3=O)cc(C)n1 [PD] | < 4 | < 4 | –
32 | CN(C)[C@@H]1C(O)=C(C(N)=O)C(=O)[C@@]2(O)C(O)=C3C(=O)c4c(O)ccc(-c5cnc(N)nc5)c4C[C@H]3C[C@@H]12 [PF] | < 4 | < 4 | –
33 | CN(C)c1cc(CNCc2ccc(OC(F)(F)F)cc2)c(O)c2c1C[C@H]1C[C@H]3[C@H](N(C)C)C(O)=C(C(N)=O)C(=O)[C@@]3(O)C(O)=C1C2=O [PJ] | < 4 | > 4 | –
34 | CON(C)CC(=O)Nc1ccc(-c2ccc(O)c3c2C[C@H]2C[C@H]4[C@@H](N(C)C)C(O)=C(C(N)=O)C(=O)[C@@]4(O)C(O)=C2C3=O)cc1 [PN] | < 4 | > 4 | –
35 | CN(C)[C@@H]1C(O)=C(C(N)=O)C(=O)[C@@]2(O)C(O)=C3C(=O)c4c(O)c(CN5CCCCC5)cc(-c5ccoc5)c4C[C@H]3C[C@@H]12 [PQ] | < 4 | < 4 | –
36 | CN(C)[C@H]1C(O)=C(C(N)=O)C(=O)[C@@]2(O)C(O)=C3C(=O)c4c(O)ccc(-c5ncccn5)c4C[C@H]3C[C@@H]12 [PX] | < 4 | > 4 | –
37 | CN(C)[C@@H]1C(O)=C(C(N)=O)C(=O)[C@@]2(O)C(O)=C3C(=O)c4c(O)c(CN5CCOCC5)cc(-c5ccoc5)c4C[C@H]3C[C@@H]12 [QA] | < 4 | < 4 | –
38 | CN(C)/C=N/c1ccc(O)c2c1C[C@H]1C[C@H]3[C@@H](N(C)C)C(O)=C(C(N)=O)C(=O)[C@@]3(O)C(O)=C1C2=O [QC] | < 4 | < 4 | –
39 | C[C@H]1c2cccc(O)c2C(=O)C2=C(O)[C@]3(O)C(=O)C(C(N)=O)=C(O)[C@@H](N(C)C)[C@@H]3[C@@H](OC(=O)CCN3CCCC3)[C@@H]21 [R] | < 4 | < 4 | –
40 | CN(C)c1cc(NC(=O)Nc2cccc3ccccc23)c(O)c2c1C[C@H]1C[C@H]3[C@H](N(C)C)C(O)=C(C(N)=O)C(=O)[C@@]3(O)C(O)=C1C2=O [S] | < 4 | > 4 | –
41 | C[C@H]1c2cccc(O)c2C(=O)C2=C(O)[C@]3(O)C(=O)C(C(N)=O)=C(O)[C@@H](N(C)C)[C@@H]3[C@@H](OC(=O)C34CC5CC(CC(C5)C3)C4)[C@@H]21 [T] | < 4 | > 4 | –
42 | C[C@H]1c2ccc(NC(=O)Oc3ccc(F)cc3)c(O)c2C(=O)C2=C(O)[C@]3(O)C(=O)C(C(N)=O)=C(O)[C@@H](N(C)C)[C@@H]3[C@@H](O)[C@@H]21 [V] | – | – | MIC (S. aureus RN450; read-out: Antibiotic Activity Gram +): > 4 mg/L; MIC (E. coli mL308 225; read-out: Antibiotic Activity Gram −): > 4 mg/L
43 | CN(C)c1cc(-c2cccs2)c(O)c2c1C[C@H]1C[C@H]3[C@H](N(C)C)C(O)=C(C(N)=O)C(=O)[C@@]3(O)C(O)=C1C2=O [W] | < 4 | > 4 | –
44 | CN(C)c1cc(-c2ccc3c(c2)OCO3)c(O)c2c1C[C@H]1C[C@H]3[C@H](N(C)C)C(O)=C(C(N)=O)C(=O)[C@@]3(O)C(O)=C1C2=O [Y] | < 4 | > 4 | –
45 | CN(C)[C@@H]1C(O)=C(C(N)=O)C(=O)[C@@]2(O)C(O)=C3C(=O)c4c(O)ccc(-c5ccc6c(c5)OCO6)c4C[C@H]3C[C@@H]12 [drawing 3286] | – | – | MIC (S. aureus RN450; [3]): < 4 mg/L; MIC (E. coli mL308 225; [4]): < 4 mg/L
46 | CN(C)[C@@H]1C(O)=C(C(N)=O)C(=O)[C@@]2(O)C(O)=C3C(=O)c4c(O)ccc(-c5ccoc5)c4C[C@H]3C[C@@H]12 [drawing 3287] | – | – | MIC (S. aureus RN450; [3]): < 4 mg/L; MIC (E. coli mL308 225; [4]): < 4 mg/L
